Measurements taken from patent US9844549B2, “2-aminothiazole derivative or salt thereof” (ASTELLAS PHARMA INC., priority 2014, dated 2017).
Where a name gives a salt, the structure may show the parent alone.

Assays:
rat isolated bladder = assay: Effect on electrical field stimulation-induced contraction in rat isolated bladder; details: AUC of contraction, value before treatment = 100%, SD female rat bladder, read-out: Enhancement rate of extracted bladder contractions (% of pre)
Procedure: Test Example 2: Effect on Electrical Field Stimulation-Induced Contraction in Rat Isolated Bladder
As an effect on the nerve stimulation-dependent bladder contraction in in vitro, the effect of the Example compounds of the present invention in the electrical field stimulation-induced contraction of the rat isolated bladder was measured by the following method. That is, a bladder specimen having a width of about 2 mm and a length of about 10 mm in the longitudinal direction from the bladder isolated from a Sprague-Dawley (SD) female rat (Japan SLC, Inc.) was prepared. The prepared bladder specimen was suspended in an organ bath filled with 10 mL of a Krebs-Henseleite solution. The Krebs-Henseleite solution was aerated at 95% 02 and 5% CO2, and kept at 37° C. After carrying out stabilization at an initial tension of 1 g, the contraction was caused twice with 60 mM KCl. After stabilization of the specimen with a Krebs-Henseleite solution, the contraction was caused by carrying out electrical field stimulation at 20 V with an electrical stimulation device (Nihon Kohden) (a stimulation frequency of 8 Hz, a pulse width of 0.3 msec, and a stimulation time of 10 seconds). By repeating the transmural electrical stimulation at an interval of 2 minutes, a voltage was adjusted to obtain a contraction height of approximately 50% of the contractile response at 20 V. After the contraction by electrical field stimulation had been stabilized, 10 μL of the test substances dissolved in 100% DMSO in advance (final concentrations of 3 μM, 10 μM, and 30 μM) was added thereto. The test substances were cumulatively administered at the following concentrations after the low-concentration contractile response had been stabilized. The response was taken into a personal computer through a PowerLab (registered trademark) (AD Instruments, Inc.), and analyzed by LabChart (registered trademark) (AD Instruments, Inc.). When the area under the response (area under curve, AUC) in each contraction response was calculated and the value before treatment with the test substance was taken as 100%, the enhancement rate (% of pre) of the isolated bladder contractions after treatment with the test substance was calculated.

anesthetized rats = assay: Effect on pelvic nerve stimulation-induced elevation of intravesical pressure in anesthetized rats; format: in vivo; details: Rattus norvegicus; 3 mg/kg intravenous; maximum effect within one hour; AUC, pre-treatment = 100%; SD female rats; read-out: Increase rate of intravesical pressure (% of pre)
Procedure: Test Example 3: Effect on Pelvic Nerve Stimulation-Induced Elevation of Intravesical Pressure in Anesthetized Rats
The effect of the Example compounds of the present invention in the pelvic nerve electrical stimulation-induced elevation of intravesical pressure using rats as an action of nerve stimulation-dependent bladder contraction in vivo was measured by the following method. That is, SD female rats (Japan SLC, Inc.) were used and its lower abdomen was dissected at the midline under pentobarbital anesthesia (50 mg/kg ip). After ligating and cutting the ureter on both sides, a cannula (PE-50) for measuring the intravesical pressure was inserted into the bladder from the external urethral opening and fixed by a clip. After injecting about 200 μL of saline through the cannula that had been inserted into the bladder, the other side was connected to a pressure transducer to measure the intravesical pressure. Under a stereoscopic microscope observation, the pelvic nerve in the vicinity of the bladder was peeled and an electrode for nerve stimulation (unique Medical) was placed. The abdominal cavity was filled with mineral oil (MP BIOMEDICALS). After placing in a post-operative stabilization period, the pelvic nerve was subjected to electrical stimulation (stimulation voltage: 10 V, stimulation frequency: 8 Hz, pulse width: 0.3 msec, and stimulation time: 10 seconds) to elicit the elevation of intravesical pressure, using an electrical stimulator (Nihon Kohden). By repeating the electrical stimulation at an interval of 2 minutes while adjusting the voltage, the voltage was adjusted to elicit about 50% to 70% elevation of intravesical pressure elicited at 10 V. Thereafter, by repeating the electrical stimulation at an interval of 10 minutes, the increase in the intravesical pressure by electrical stimulation was stabilized three times or more, and the test substance (an administration amount of 3 mg/kg) was then administered from the catheter detained in the vein at a volume of 1 mL/kg, thus measuring an effect of the elevation of the intravesical pressure of the test substance for 1 hour. The test substance was dissolved in water supplemented with 10% DMSO and 10% Cremophor.
The response was applied to a personal computer through a PowerLab (registered trademark) and analyzed by LabChart (registered trademark). The AUC of each elevation of the intravesical pressure was calculated, the intravesical pressure elevation rate (% of pre) after the treatment with the test substance was calculated by taking an average value of the values measured three times before the treatment with the test substance as 100%, and the maximum effect during a period within one hour after administration of the compound was considered as the effect of the test substance.

Row | Compound | activity at 10 µM (rat isolated bladder) | response vs control in vivo at 3 mg/kg (anesthetized rats)
1 | Cc1nc(Nc2nc(-c3cc(F)cc(C(F)(F)F)c3)c(CN3CCC[C@H]3C)s2)c(F)c(N2CCN(CCC(=O)O)CC2)n1 [Example 18] | 199% | 153%
2 | CC[C@@H]1CCCN1Cc1sc(Nc2ncnc(N3CCC(OCC(=O)O)CC3)c2F)nc1-c1cc(Cl)cc(C(F)(F)F)c1 [Example 13, [(1-{6-[(4-[3-chloro-5-(trifluoromethyl)phenyl]-5-{[(2R)-2-ethylpyrrolidin-1-yl]methyl}-1,3-thiazol-2-yl)amino]-5-fluoropyrimidin-4-yl}piperidin-4-yl)oxy]acetic acid dihydrochloride] | 127% | 186%
3 | COc1c(Nc2nc(-c3cc(F)cc(C(F)(F)F)c3)c(CN3CCC[C@H]3C)s2)ncnc1N1CCN(CCC(=O)O)CC1 [Example 91] | 124% | 144%
4 | Cc1nc(Nc2nc(-c3cc(F)cc(C(F)(F)F)c3)c(CN3CCC[C@H]3C)s2)cc(N2CCN(CCC(=O)O)CC2)n1 [Example 3, 3-(4-{6-[(4-[3-fluoro-5-(trifluoromethyl)phenyl]-5-{[(2R)-2-methylpyrrolidin-1-yl]methyl}-1,3-thiazol-2-yl)amino]-2-methylpyrimidin-4-yl}piperazin-1-yl)propanoic acid trihydrochloride] | 136% | 146%
5 | C[C@@H]1CCCN1Cc1sc(Nc2ncnc(N3CCN(CCC(=O)O)CC3)c2F)nc1-c1cc(F)cc(C(F)(F)F)c1 [Example 17] | 199% | 144%
6 | COC[C@@H]1CN(c2ncnc(Nc3nc(-c4ccc(Cl)c(C(F)(F)F)c4)c(CN4CCC[C@H]4C)s3)c2F)CCN1CCC(=O)O [Example 1, 3-[(2S)-4-{6-[(4-[4-chloro-3-(trifluoromethyl)phenyl]-5-{[(2R)-2-methylpyrrolidin-1-yl]methyl}-1,3-thiazol-2-yl)amino]-5-fluoropyrimidin-4-yl}-2-(methoxymethyl)piperazin-1-yl]propanoic acid trihydrochloride] | 120% | 197%
7 | CC1CC[C@@H](C)N1Cc1sc(Nc2ncnc(N3CCN(CCC(=O)O)CC3)c2F)nc1-c1cc(F)cc(C(F)(F)F)c1 (stereo in doubt) [Example 8, sodium 3-(4-{6-[(5-{[(2R,5R)-2,5-dimethylpyrrolidin-1-yl]methyl}-4-[3-fluoro-5-(trifluoromethyl)phenyl]-1,3-thiazol-2-yl)amino]-5-fluoropyrimidin-4-yl}piperazin-1-yl)propanoate] | 193% | 178%
8 | COC[C@@H]1CN(c2ncnc(Nc3nc(-c4cc(F)cc(C(F)(F)F)c4)c(CN4CCC[C@H]4C)s3)c2F)CCN1CCC(=O)O [Example 10, 3-[(2S)-4-{5-fluoro-6-[(4-[3-fluoro-5-(trifluoromethyl)phenyl]-5-{[(2R)-2-methylpyrrolidin-1-yl]methyl}-1,3-thiazol-2-yl)amino]pyrimidin-4-yl}-2-(methoxymethyl)piperazin-1-yl]propanoic acid trihydrochloride] | 271% | 169%
9 | C[C@@H]1CCCN1Cc1sc(Nc2ncnc(N3CCN(CCC(=O)O)CC3)c2F)nc1-c1cc(Cl)cc(C(F)(F)F)c1 [Example 11, 3-(4-{6-[(4-[3-chloro-5-(trifluoromethyl)phenyl]-5-{[(2R)-2-methylpyrrolidin-1-yl]methyl}-1,3-thiazol-2-yl)amino]-5-fluoropyrimidin-4-yl}piperazin-1-yl)propanoic acid trihydrochloride] | 219% | 181%
10 | Cc1nc(Nc2nc(-c3cc(F)cc(C(F)(F)F)c3)c(CN3[C@H](C)CC[C@H]3C)s2)c(F)c(N2CCN(CCC(=O)O)CC2)n1 [Example 4, sodium 3-(4-{6-[(5-{[(2R,5R)-2,5-dimethylpyrrolidin-1-yl]methyl}-4-[3-fluoro-5-(trifluoromethyl)phenyl]-1,3-thiazol-2-yl)amino]-5-fluoro-2-methylpyrimidin-4-yl}piperazin-1-yl)propanoate] | 127% | 178%
11 | C[C@@H]1CCCN1Cc1sc(Nc2ncnc(N3CCN(CCC(=O)O)CC3)c2F)nc1-c1ccc(Cl)c(C(F)(F)F)c1 [Example 9, 3-(4-{6-[(4-[4-chloro-3-(trifluoromethyl)phenyl]-5-{[(2R)-2-methylpyrrolidin-1-yl]methyl}-1,3-thiazol-2-yl)amino]-5-fluoropyrimidin-4-yl}piperazin-1-yl)propanoic acid trihydrochloride] | 187% | 200%
12 | CCN(CC)Cc1sc(Nc2nc(C)nc(N3CCN(CCC(=O)O)CC3)c2F)nc1-c1cc(F)cc(C(F)(F)F)c1 [Example 97] |  | 143%
13 | COC1(C(=O)O)CCN(c2ncnc(Nc3nc(-c4cc(F)cc(C(F)(F)F)c4)c(CN4CCC[C@H]4C)s3)c2F)CC1 [Example 39] |  | 123%
14 | C[C@@H]1CCCN1Cc1sc(Nc2ncnc(N3CCC(OCC(=O)O)CC3)c2F)nc1-c1cc(F)cc(C(F)(F)F)c1 [Example 12, [(1-{5-fluoro-6-[(4-[3-fluoro-5-(trifluoromethyl)phenyl]-5-{[(2R)-2-methylpyrrolidin-1-yl]methyl}-1,3-thiazol-2-yl)amino]pyrimidin-4-yl}piperidin-4-yl)oxy]acetic acid dihydrochloride] | 166% | 152%
15 | C[C@@H]1CCCN1Cc1sc(Nc2cc(N3CCN(CCC(=O)O)CC3)ccn2)nc1-c1cc(F)cc(C(F)(F)F)c1 [Example 19] | 161% | 125%
16 | C[C@@H]1CCCN1Cc1sc(Nc2cc(N3CCN(CCC(=O)O)CC3)ncn2)nc1-c1cc(F)cc(C(F)(F)F)c1 [Example 14] | 169% | 121%
